Measured values: US20220354805A1, “Cannabidiol (CBD) as Chemical for Treating Aging-related Degenerative Diseases and Promoting Health Aging” (Hemix Biotech Limited, priority 2021, published 2022)

Tests used:
[1] = system: wildtype and LMNA^G609G/G609G MEFs; assay: Senescence-associated beta-galactosidase staining of MEFs; type: cell-based, mouse; details: vs control cells
Experimental: In the step of determining the senescence lever and optimal concentration, the primary mouse embryonic fibroblasts (MEFs) at passage 3 were seeded and cultured in chamber slides. The slides were washed twice with ice-cold phosphate buffered saline (PBS). Using senescence-associated beta-galactosidase staining kit, the cells were fixed for 10 minutes with provided paraformaldehyde and washed twice with PBS. The slides were then incubated with the staining solution at 37° C. overnight. On the following day, the slides were washed twice with PBS and mounted with 40% glycerol in PBS. The stained cells were observed under a light microscope. Senescent cells were stained blue while proliferating cells were unstained. The percentage of senescent cells was quantified by counting the number of stained and unstained cells.

LMNA^G609G/G609G MEFs = assay: Relative nuclear circularity of MEFs; type: cell-based, mouse; details: 12-day CBD treatment, vs control
Experimental: In the step of determining the relative nuclear circularity, the primary mouse embryonic fibroblasts (MEFs) at passage 3 were seeded and cultured in chamber slides. Nuclei were stained using DAPI or LMNA/C antibodies. The fluorescence images were captured using confocal microscopy. The perimeter and area of the individual nucleus were measured using software CellProfiler. Relative nuclear circularity was calculated using the formula: […]
A value of 1 in relative nuclear circularity indicates a perfect circle. Nuclei with relative nuclear circularity closer to 0 indicate they are more irregularly shaped.

Caenorhabditis elegans = assay: Lifespan analysis of Caenorhabditis elegans; type: in vivo; details: C. elegans
Experimental: In step of analyzing the lifespan of Caenorhabditis elegans, for chemical treatment in Caenorhabditis elegans, chemical was added to the nematode growth medium (NGM) dishes. The NGM with agarose was autoclaved and then cooled down to below 65° C. The different concentrations of chemical were added to NGM. The NGM was then poured into 60 mm dishes and incubated at room temperature overnight. The solidified NGM dishes were stored at 4° C. Escherichia coli OP50 strain was used as the food source for C. elegans. A single colony of OP50 was incubated in 200 mL of lysogeny broth (LB) medium at 37° C. overnight. The OP50 was then killed by incubation at 65° C. for […]. The dead OP50 was spread throughout the surface of the NGM dishes. The NGM dishes with dead OP50 and CBD were stored at 4° C. for up to 2 weeks. The synchronization of C. elegans was carried out by the bleaching method. 20 L4 larvae were picked to each 60 mm dish with different concentrations of chemical and cultured at 20° C. They were monitored every day, and the number of living, dead and missing C. elegans were recorded. The C. elegans were transferred to fresh Petri dishes every 2 days to separate the target worms from their offspring and to ensure if they had enough food source. 10-20 μM of CBD was identified to be the optimal dosage for extending the lifespan of C. elegans.

[2] = system: skin of LMNA^G609G/G609G mice; assay: Histology study of mouse skin (hematoxylin and eosin staining); type: in vivo; details: CBD treated LMNA^G609G/G609G mice
Experimental: (§1) In the step of study the histology of mouse skin and liver, the mice were sacrificed by cervical dislocation under anesthesia by intraperitoneal (IP) injection of 100 mg/kg ketamine and 16 mg/kg xylazine in sterile water. Major organs, including skin, muscle, intestine, kidney, spleen, liver, lung, heart, aorta, were collected. Half of the tissues were snap-frozen in liquid nitrogen and stored at −80° C. for extraction of proteins and RNA. Another half of the tissues were fixed in 4% paraformaldehyde (PFA) in PBS and shook at 4° C. overnight. For paraffin wax sections, the fixed tissues were incubated in 70% ethanol and shook at 4° C. overnight. Followed by stepwise dehydration of tissues in 90%, 95%, 100%, and 100% ethanol for 1 hour each. Then the tissues were incubated in 50% xylene and 50% ethanol for 30 to 40 minutes and transferred to 100% xylene for 10 to 15 minutes. The tissues were then incubated in wax for 30 minutes and transferred to new wax for 3 times. Then the tissues were placed in the wax inside a vacuum chamber overnight. On the following day, the tissues were embedded into paraffin blocks and sectioned into slides with 6 μm in thickness. After the tissue sections were dried, they were incubated in xylene solution twice each for 5 minutes. […]

[3] = system: liver of LMNA^G609G/G609G mice; assay: Senescence-associated beta-galactosidase staining of mouse liver; type: in vivo; details: CBD treated LMNA^G609G/G609G mice
Experimental: as §1

SMILES: C=C(C)[C@@H]1CCC(C)=C[C@H]1c1c(O)cc(CCCCC)cc1O [CBD, Cannabidiol]
- senescence levels ([1]; 10 μM CBD, 8 days): decrease in senescence levels
- senescence levels (toxicity effect) ([1]; 50 μM CBD, 4 days): increase in senescence levels
- relative nuclear circularity (LMNA^G609G/G609G MEFs): significantly increased the relative nuclear circularity
- maximum lifespan increase (Caenorhabditis elegans; 10 or 20 μM CBD): 8-12.5%
- median lifespan increase (Caenorhabditis elegans; 10 or 20 μM CBD): 55-61.5%
- optimal dosage for extending the lifespan (Caenorhabditis elegans; CBD in NGM dishes, 20° C.): 10 to 20 µM
- decrease of hair follicle density [2]: rescued
- loss of skin adipose layer [2]: rescued
- increase of senescent cells in liver [3]: rescued
